Assay results published in patent US12514935B2, “Nanocarrier systems for imaging and delivery of active agents” (Kansas State University Research Foundation, priority 2018, dated 2026).

What was measured:
THP-1 cells [1] = assay: In vitro immunogenicity cytokine release assay (ELISA); assay type: cell-based, human; settings: THP-1, 24 h incubation
Method: The immunogenicity of NKsomes in THP-1 cells were tested for its inflammatory response using a cytokine release assay. In brief, 7.5×10^5 THP-1 cells were seeded in 12-well plate and treated with isolated NKM (100 μg/mL), NKsomes (100 μg/mL), Free DOX (5 μg/mL), DOX@NKsomes (equivalent DOX load) and Bare liposomes (100 μg/mL) for 24 h incubation. Positive (LPS, 3 μg/mL) and negative controls were maintained for assessing pro-inflammatory cytokines in THP-1 cells. The treated cell culture supernatants were collected, centrifuged to remove cell debris, aliquot and stored at −20° C. until needed. Samples were thawed and used for analyzing pro-inflammatory cytokines, IL-1β (0.8 pg/ml), IL-6 (0.4 pg/mL) and TNF-α (0.7 pg/mL) using quantitative enzyme-linked immunosorbent assay KIT (ELISA) (R&D Systems, Inc. Minneapolis, MN) as recommended by the manufacturer. Sample […] was measured at 450 nm with the wavelength correction at 540 nm using Synergy H1 hybrid microplate reader (BioTek Instruments Inc. VT).

MCF-7 cells [2] = assay: MTT assay; assay type: cell-based, human; settings: MCF-7, DOX 0.5-15 μM, 24 h
Method: (§1) For MTT analysis, MCF-7 cells and NHost cells were treated with NKsomes with different DOX concentration along with free DOX and bare NKsomes. In brief, 2×10^4 cells per well in the respective medium were seeded in a 96-well plate and incubated for 24 h. While the cell reaches 80% confluence, the media was replaced with different DOX concentration of free DOX and NKsomes (0.5, 1.5, 3, 5, 10 and 15 uM) and incubated for additional 24 h. Control cells were maintained without DOX treatment. After incubation, MTT dye was added according to the manual instruction and further incubated for 3 h. The insoluble formation crystals were solubilized using DMSO, and the absorbance was read at 590 and 630 nm using microplate reader (BioTek, Synergy H1 Hybrid reader).

NHost cells = assay: MTT assay; assay type: cell-based, human; settings: DOX 0.5-15 μM, 24 h
Method: as §1

[3] = tested on: MCF-7 induced solid tumor model; assay: In vivo anti-tumor therapy; design: species or system NU/NU nude mice
Method: The anti-tumor efficacy of DOX@NKsomes was determined along with free DOX and unloaded NKsomes (aka “empty” NKsomes) using MCF-7 induced solid tumor model in immunodeficient NU/NU nude mice (n=3). In brief, 1×10^6 MCF-7 cells in PBS was injected subcutaneously into the hind rear flank region of the mice and the tumor growth is monitored periodically. When the tumor size reached 4-5 mm, animals received 4 cycles of drug treatment at Day 1, 4, 7 and 10 [DOX@NKsomes and free DOX (equivalent DOX concentration of 5 mg/kg)] up to 3 weeks. Control groups were also maintained without any treatment and bare NKsomes (10 mg/kg). During the study, body weight and tumor volume of the animal groups were monitored periodically to assess the therapeutic effects. The tumor volume (V) was determined using V=L×W2/2, where L=length of the tumor and W=width of the tumor. At the end of the study, animals were euthanized, collected tumors and measured its size and weight. Further, the tumor tissues were embedded in OCT, cryosectioned and subjected to immunofluorescence for the qualitative accumulation of NKsomes in tumor tissues by assessing the NKM protein marker (CD 56).

MCF-7 cells [4] = assay: Cell cycle analysis (propidium iodide, FACS); assay type: cell-based, human; settings: MCF-7, DOX 5 μM, 12 h
Method: (§2) The in vitro cytotoxicity of DOX@NKsome and the equivalent Free DOX were investigated against MCF-7 cells and NHost using a cell cycle analysis and an MTT assay. For cell cycle analysis, 1×10^6 cells were treated with 5 μM of Free DOX, equivalent DOX@NKsomes and bare NKsomes (equivalent to DOX-loaded) for 12 h. After incubation, cells were harvested, fixed in 70% ethanol overnight, washed with PBS twice and then followed propidium iodide staining. Further, the samples were analyzed in FACS Calibur for cell cycle analysis.

NHost = assay: Cell cycle analysis (propidium iodide, FACS); assay type: cell-based, human; settings: DOX 5 μM, 12 h
Method: as §2

THP-1 cells [5] = assay: In vitro cytokine release assay of BNc; assay type: cell-based, human; settings: THP-1, 100 μg/mL (LPS 3 μg/mL), 24 h
Method: The immunogenicity of the prepared BNc along with the bare PLGA NP were tested for its immunoregulatory potential using standard cytokine release assay. In brief, 8×10^5 THP-1 cells were seeded in a 12-well plate and treated with bare PLGA NP (100 μg/mL), NKM (100 μg/mL), Gd-lipid (100 μg/mL) and BNc (100 μg/mL) at 37° C. for 24 h. After 24 h incubation, cell culture supernatants were collected, centrifuged, removed cell debris and stored at −20° C. as small aliquots. For cytokine assay, samples were thawed and analyzed for pro-inflammatory cytokines, IL-1β (LOD: 1.7 pg/ml), IL-6 (LOD: 1.5 pg/mL), and TNF-α (LOD: 1 pg/mL) using Magnetic Human Cytokine Multiplex Assays Kit (R&D Systems, Inc. Minneapolis, MN) in Luminex MagPix® instrument (Millipore Inc.) as per the manufacturer recommendations. For positive control, cells were dosed with 3 μg/mL of lipopolysaccharide (LPS) for 24 h.

In the case of `COc1cccc2c1C(=O)c1c(O)c3c(c(O)c1C2=O)C[C@@](O)(C(=O)CO)C[C@@H]3O[C@H]1C[C@H](N)[C@H](O)[C@H](C)O1` [Free DOX, doxorubicin], the “immunogenicity (pro-inflammatory cytokines)” value (THP-1 cells [1]) is reported as “little elevation of IL-10 and TNF-α levels”, the “in vitro cytotoxicity (MTT)” value (MCF-7 cells [2]) is reported as “Dose-dependent cytotoxicity” and the “in vitro cytotoxicity (MTT)” value (NHost cells) is reported as “superior toxicity”. The “tumor inhibition rate (IR %)” value ([3]; DOX 5 mg/kg or bare NKsomes 10 mg/kg, Day 1, 4, 7, 10, from tumor weight) was 63.69%, the average tumor weight ([3]; end of study) was 0.3 ± 0.04 g and the tumor volume change ([3]; end of treatment period) was “significant reduction in tumor volume”. It also gave a G1 fraction (MCF-7 cells [4]) of 53%, a G2 fraction (MCF-7 cells [4]) of 25% and a G1 fraction (NHost) of 53.3%. It also gave a G2 fraction (NHost) of 23.6%.

For lipopolysaccharide [LPS], the “immunogenicity (IL-1β, IL-6, TNF-α release)” value (THP-1 cells [5]) was “elevated levels of IL-1β, IL-6, and TNF-α”.
